Series [1] is described as follows: compound toxicity assay (3H-LEU). In kind it is cell-based. As for the experimental part: (§1) The compound toxicity assay (3H-LEU), Plaque Reduction Assay for HSV Antiviral Activity (Plaque), and Transient Expression Assay for Effects Against HSV Early Gene Expression (β Galactosidase Assay or βgal) were carried out as set forth in U.S. Pat. No. 5,175,151 which is hereby incorporated by reference.

In series [2] the test system is HSV Early Gene Expression. Kind of series: Transient Expression Assay for Effects Against HSV Early Gene Expression (β Galactosidase Assay or βgal). It counts as cell-based. To be noted: read-out: βgal. As for the experimental part:
as §1

The subject of series [3] is HSV. Kind of series: Plaque Reduction Assay for HSV Antiviral Activity (Plaque). It counts as cell-based. As for the experimental part:
as §1

In the next series the test system is HSV-1 and HSV-2. The settings on record: added to lidocaine or lidocaine hydrochloride; Haines et al.; cited from earlier work.
The subject of series [4] is HSV. The settings on record: Haines et al.; cited from earlier work.
In another series the test system is HSV-1. To be noted: U.S. Pat. No. 4,757,088; cited from earlier work.
Another series relates to HSV-2. The settings on record: U.S. Pat. No. 4,757,088; cited from earlier work.
The next series concerns herpes virus. The settings on record: U.S. Pat. No. 4,757,088; cited from earlier work.

Values after ≈ are worked out from the molar mass of the structure shown.

As for `CC(=O)Oc1ccc2nc3[nH]nc(C)c3c(OC(C)=O)c2c1` [A], in series [1], the midpoint of cytotoxicity, the CC50, lay at 14 µg/mL (≈ 46.8 µM). In addition, in series [2], the IC50 was 3 µg/mL (≈ 10 µM).

For `CC(=O)Oc1ccc2nc3c(c(C)nn3C(C)=O)c(O)c2c1` [B], the CC50 in series [1] was 15 µg/mL (≈ 50.1 µM). Moreover, in series [2], the IC50 turned out to be 8 µg/mL (≈ 26.7 µM).

The compound `CCCCC(=O)Oc1ccc2nc3[nH]nc(C)c3c(OC(=O)CCCC)c2c1` [C] yielded a cytotoxic concentration (CC50) in series [1] of 5 µg/mL (≈ 13 µM). The IC50 in series [2] came to 5 µg/mL (≈ 13 µM).

With `CCC(=O)Oc1ccc2nc3[nH]nc(C)c3c(OC(=O)CC)c2c1` [D], the IC50 in series [2] was determined as 11 µg/mL (≈ 33.6 µM).

With `COc1ccc2nc3c(c(C)nn3C(C)=O)c(O)c2c1` [E], it took 23 µg/mL (≈ 84.8 µM) to reach half-maximal cytotoxicity in series [1] (CC50). In series [2], the IC50 came to 3 µg/mL (≈ 11.1 µM).

For `CC(=O)n1nc(C)c2c(O)c3cc(Cl)ccc3nc21` [F], the CC50 in series [1] came to 37 µg/mL (≈ 134 µM). In addition, the IC50 in series [2] stood at 9 µg/mL (≈ 32.6 µM).

Regarding `CC(=O)Oc1c2cc(F)ccc2nc2[nH]nc(C)c12` [G], in series [1], the midpoint of cytotoxicity, the CC50, lay at 43 µg/mL (≈ 166 µM). The IC50 in series [2] turned out to be 3 µg/mL (≈ 11.6 µM).

For the compound `CC(=O)n1nc(C)c2c(O)c3cc(F)ccc3nc21` [H], the CC50 in series [1] amounted to 32 µg/mL (≈ 123 µM). For the same compound, the IC50 in series [2] came to 2 µg/mL (≈ 7.71 µM).

On to `CCCCCCCn1nc(C)c2c(OC(C)=O)c3cc(OC)ccc3nc21` [I], for which the 50% cytotoxic concentration (CC50) in series [1] was < 1 µg/mL. Also, the IC50 in series [2] worked out at 2.8 µg/mL (≈ 7.58 µM).

`CC(=O)n1nc(C)c2c(O)c3cc(C)ccc3nc21` [J] gave a CC50 in series [1] of 100 µg/mL (≈ 392 µM). Also, in series [2], the IC50 was determined as 9 µg/mL (≈ 35.3 µM).

Turning to `COc1cc(C)c2[nH]c3c(c(C)nn3C(C)=O)c(=O)c2c1` [K], the CC50 in series [1] is > 100 µg/mL. Further, the IC50 in series [2] was 5 µg/mL (≈ 17.5 µM).

On to `CCCCCCCn1nc(C)c2c(=O)c3cc(C)ccc3[nH]c21` [L], for which half-maximal cytotoxicity in series [1] (CC50) was put at 3.4 µg/mL (≈ 10.9 µM). For the same compound, the IC50 in series [2] worked out at 3 µg/mL (≈ 9.63 µM).

As to `CCCCCCCn1nc(C)c2c(OC(C)=O)c3cc(C)ccc3nc21` [M], the CC50 in series [1] is < 1 µg/mL. Besides, in series [2], the IC50 was found to be 3 µg/mL (≈ 8.49 µM).

`COc1cccc2c(O)c3c(C)nn(C(C)=O)c3nc12` [N]: in series [1], the CC50 is 100 µg/mL (≈ 369 µM). The IC50 in series [2] came out at 3 µg/mL (≈ 11.1 µM).

With `COc1ccc2nc3[nH]nc(C)c3c(OCCN(C)C)c2c1` [O], the figures for the IC50 (in the series with HSV [3]; in series [2]) were 0.7 µg/mL (≈ 2.33 µM) and 1.4 µg/mL (≈ 4.66 µM), respectively. Besides, the CC50 in series [1] was 5.4 µg/mL (≈ 18 µM).

Turning to `COc1ccc2nc3c(c(C)nn3CCCO)c(OC)c2c1` [P], the figures for the IC50 (in the series on HSV [3]; in series [2]) were > 20 µg/mL and 7.2 µg/mL (≈ 23.9 µM), respectively.

For the compound `COc1ccc2nc3[nH]nc(C)c3c(OCCN3CCOCC3)c2c1` [Q], the IC50 (in the series with HSV [3]; in series [2]) was 20 µg/mL (≈ 58.4 µM) throughout.

As for `C=CCOc1ccc2nc3c(c(C)nn3CC=C)c(O)c2c1` [R], the IC50 (with HSV [3]; in series [2]) was 20 µg/mL (≈ 67.7 µM) each time.

In the case of `CC(C)(CO)[C@@H](O)C(=O)NCCCO` [dexpanthenol], the “antiviral activity of lidocaine or lidocaine hydrochloride on addition of the substance” value with HSV-1 and HSV-2 is “significantly enhances”.

Turning to `CCN(CC)CC(=O)Nc1c(C)cccc1C` [lidocaine, 2-(diethylamino)-N-(2,6-dimethylphenyl)acetamide], the “treatment of HSV oral and genital lesions in humans” value with HSV [4] is on record as “particularly effective”. Further, in the series with HSV-1, the “antiviral activity in cell culture against HSV-1” value is “antiviral agent”. Besides, the “antiviral activity in cell culture against HSV-2” value in the series on HSV-2 is “antiviral agent”. In the series on herpes virus, the “treatment of herpes virus infections of mammals” value is “able to treat herpes virus infections of mammals”.

As for `CC(C)(CO)[C@@H](O)C(=O)NCCC(=O)O` [panthothenic acid], in the series with HSV-1 and HSV-2, the “antiviral activity of lidocaine or lidocaine hydrochloride on addition of the substance” value was “significantly enhances”.

Values taken from patent US5459146A, “4-substituted pyrazoloquinoline derivatives” (Schering Corporation, priority 1993, dated 1995).
